{
  "source": "patent US12280144B2",
  "about": "“Gel compositions for mitigation of burn injuries, kits containing the gel compositions, and associated methods” (priority 2019, dated 2025)",
  "key": {"[1]": {"details": "cited from earlier work; for pKa1 / pKa2: 25° C.; for pKa: Table 1, pKa of the parent weak acid of the sodium salt"}, "[2]": {"details": "at 25° C.; KCl and NaHCO3 values are assumed (NaHCO3: Leaist et al); cited from earlier work"}, "[3]": {"test": "Acid/base dissociation constants of weak acids and their sodium salts", "details": "anion of the salt in water; for Kb: Kb=10^−pKb"}, "[4]": {"details": "external use on burn wounds in HSST; cited from earlier work"}},
  "data": [
    {"smiles": "O=C(O)CC(O)(CC(=O)O)C(=O)O", "note": "[Citric Acid]", "values": [
      {"measurement": "pKa1", "setting": "[1]", "result": 2.92},
      {"measurement": "pKa2", "setting": "[1]", "result": 4.28},
      {"measurement": "pKa3", "setting": "[1]", "result": 5.21}
    ]},
    {"smiles": "[Cl-].[K+]", "note": "[KCl]", "values": [
      {"measurement": "diffusivity in water DAB", "setting": "[2]", "result": "13.6·10^−6 cm^2/s"}
    ]},
    {"smiles": "CC(O)C(=O)O", "note": "(stereo not shown) [Lactic Acid]", "values": [
      {"measurement": "Kb", "setting": "[3]", "result": "7.24*10^−12"}
    ]},
    {"smiles": "O=C([O-])O.[Na+]", "note": "[Sodium Bicarbonate]", "values": [
      {"measurement": "pKa1", "setting": "[1]", "result": 6.35},
      {"measurement": "pKa2", "setting": "[1]", "result": 10.3},
      {"measurement": "pKa", "setting": "[1]", "result": 6.35},
      {"measurement": "Kb", "setting": "[3]", "result": "2.24*10^−6"},
      {"measurement": "pKb", "setting": "[3]; pKb=14.00−pKa, 25° C.", "result": 7.65}
    ]},
    {"smiles": "CC(O)C(=O)[O-].[Na+]", "note": "(stereo not shown) [Sodium Lactate]", "values": [
      {"measurement": "pKa", "setting": "[1]", "result": 3.86}
    ]},
    {"smiles": "O=C([O-])CC(O)(CC(=O)[O-])C(=O)[O-].[Na+].[Na+].[Na+]", "note": "[Trisodium Citrate]", "values": [
      {"measurement": "pKa", "setting": "[1]", "result": 3.14}
    ]},
    {"smiles": "CCN(CC)CC(=O)Nc1c(C)cccc1C", "note": "[lidocaine]", "values": [
      {"measurement": "dosage considered safe for external use", "setting": "[4]", "result": "less than 400 mg"}
    ]}
  ]
}
